Values joined by “and” are separate entries in the source; they are usually repeats but may differ in a detail not shown here. Equal entries are not always repeated.

What all share (format): in vivo
Assay [1] has as its system Fallopia convolvulus. The assay can be described thus: Field trial in winter oilseed rape, pre-emergence, % control. The protocol:
(§1) Field trials were conducted on various moncotyledonous weeds and dicotyledonous weeds and the effect of D-isomer of Napropamide was studied to understand the selective and effective control of dicotyledonous weeds over monocotyledonous weeds. The effect of D-isomer of Napropamide in comparison to racemic napropramide and untreated was studied, which is concluded hereinbelow:
(§2) Several small plot replicated trials were carried out to evaluate and/or compare the efficacy of D-Napropamide against a range of indicated annual broadleaved and grass weed species in the indicated crops. No problems were encountered during mixing or application of any of the product formulations or tank mixtures under test.
(§3) In each of the reported data, the homogeneity of variance was tested by Bartlett's test. Wherever this test indicated no homogeneity of variance, the transformed values were used for analysis of variance. Assessment data was then analyzed using a two-way analysis of variance (ANOVA) on untransformed and transformed data. The probability of no significant differences occurring between treatment means was calculated as the F probability value (p(F)). A mean comparison test was only performed and reported when the treatment of F that was calculated during analysis of variance was significant at the observed significance level specified for the mean comparison test. Where the data was transformed, treatment means in the reports were presented in their detransformed state, with the appropriate letter test and mean descriptions (LSD and standard deviation) derived from the transformed ANOVA.
(§4) Trials were conducted to evaluate the selectivity and efficacy of D-isomer of Napropamide when applied pre-emergence to oilseed rape crop. The % control of weed was assessed at regular intervals.

For assay [2], the system named is Aperaspica-venti. Described as above. Here is the method: as §1, §2, §3, §4
The test system of assay [3] is Cirsium arvense. The assay is described as above. Here is the method:
as §1, §2, §3, §4

Assay [4] deals with Senecio vulgaris. The description is as above. Here is the method:
as §1, §2, §3, §4

The subject of assay [5] is Veronica persica. The assay is described as above. Here is the method: as §1, §2, §3, §4
Assay [6] deals with Matricaria sp. The assay can be described thus: Field trial in winter oilseed rape, pre-emergence, % control and ground cover. The conditions noted are these: 450 g/L @ 2.8 L/Ha. The protocol: as §1, §2, §3, §4
For assay [7], the system named is Ranunculus repens. The assay can be described thus: Field trial on strawberries, pre-emergence, visual % control. The protocol:
as §1, §2, §3
Trial was carried out on strawberries to evaluate the efficacy and selectivity of D-Napropamide and equivalent rate of Devrinol (Napropramide) applied pre-emergence. […] The percentage control of D-isomer of Napropamide and Devrinol was assessed in comparison to the untreated after 224 days after application.

The test system of assay [8] is Papaver rhoeas. The assay is described as above. The protocol:
as §1, §2, §3
(§5) Trial was carried out on strawberries to evaluate the efficacy and selectivity of D-Napropamide and equivalent rate of Devrinol (Napropramide) applied pre-emergence. […]

In assay [9] the test system is Senecio vulgaris. Described as above. Here is the method: as §1, §2, §3, §5
Assay [10] relates to Digitaria sanguinalis. As to the kind of experiment: Plot trial, % control of Digitaria sanguinalis. The conditions noted are these: 9 L/Ha of 450 g/L formulation. Here is the method:
as §1, §2
as §3, with “ANOVA. […]” for “ANOVA.”

For assay [11], the system named is Poa annua. As to the kind of experiment: Pre-emergence glasshouse pot study, seedling emergence and growth (OECD guideline). To be noted: for Mean Final Foliar Fresh Weights Expressed as Percentage of Untreated Controls / Mean Final Foliar Fresh Weights: Poa annua; for Mean Final Foliar Fresh Weights: 21 days after 50% emergence, untreated 0.90. The protocol: (§6) A study was carried out to determine the relative biological activity of the D and L isomers of Napropamide when applied pre-emergence to one monocotyledon and one dicotyledon species. Napropamide, containing 450 grammes active substance per liter (g a.s./L) formulated as a suspension concentrate and the D-isomer of Napropamide (1000 g a.s./L) were applied at a range of concentrations from 0.1575 to 1.26 kilograms of active substance per hectare (kg a.s/Ha).
(§7) EC50 values in kg a.s./Ha were calculated from the dose response data using final foliar fresh weight data for each species and was used to determine the relative biological activity of the D and L isomers of Napropamide. The methodology was based on the OECD guideline […], according to the revision of July 2006 for seedling emergence and growth. The study was conducted to GLP standards.
(§8) Seeds were sown directly into non-porous plastic pots containing the following mix of soil: 10 L of sterile loam+4 L of coarse grit (washed quartztite, nominal 4 mm)+10 L of sand. This soil mix was characterized as a sandy loam with an organic carbon content of 1.5% and pH of 7.2. Details of the plant species, number of seeds per pot and pot size are shown below. All seeds were sown 1-2 cm deep.
(§9) The highest concentration of Napropamide was prepared by measuring a calculated volume by weight and diluting with tap water to the full required volume. Lower concentrations were prepared by serial dilution with water. D-Napropamide was prepared by dissolving the calculated weight in acetone and adding water to give the full required volume in 50:50 acetone+water. Lower concentrations were prepared by serial dilution with 50:50 acetone+water. D-Napropamide dissolved completely.
(§10) The sprayer was calibrated within 24 hours prior to application by weight of 15 applications of water to six 86 mm ID petri dishes. The total weight of water over a known area enabled a simple calculation giving the volume rate to be made. The volume rate achieved was within the range specified in the study plan (200 L/Ha±10%).
(§11) Replication was 5 pots per treatment for each plant species. After application, pots were placed on the bench in glasshouse in randomized blocks. Plants were assessed for emergence, mortality and visual injury (expressed as a percentage of the untreated control: 0%=no injury, 1-39%=slight injury, 40-69%=moderate injury, 70-99%=severe injury and 100%=all plants dead) at 14 and 21 days after 50% emergence in the untreated controls. Fresh weights (biomass above soil level) were also recorded 21 days after 50% emergence in the untreated controls. Plants were fully turgid at the time of harvest.
(§12) Assessment data was recorded on pro-forma sheets and entered into Gylling ARM 7 software. EC50 values were calculated using audited means data from the final assessments (21 day). Gylling ARM 7.0 software used a simple probit—maximum likelihood estimation method with 99% confidence level. The EC50 values generated were then visually checked against the means data table to verify they appeared correct.

Assay [12] has as its system Stellaria media. The assay is described as above. The conditions noted are these: for EC50 based on the final fresh weights: Stellaria media (dicot), 21 day assessment, probit; for Mean Final Foliar Fresh Weights Expressed as Percentage of Untreated Controls / Mean Final Foliar Fresh Weights: Stellaria media; for Mean Final Foliar Fresh Weights: 21 days after 50% emergence, untreated 1.44. The protocol:
as §6, §7, §8, §9, §10, §11, §12

On to `CCN(CC)C(=O)C(C)Oc1cccc2ccccc12` (racemic) [Napropamide, N,N-diethyl-2-(α-naphthoxy)propionamide], for which the “Percentage Control at 63 DAA” value in [1] (450 g/L @ 1.6 L/Ha) was 30.00%; in assay [1] (450 g/L @ 2.8 L/Ha), 0.00%; in [2] (450 g/L @ 1.6 L/Ha), 40.00%; in assay [2] (450 g/L @ 2.8 L/Ha) it was 76.25% and 67.50%; in assay [4] (450 g/L @ 1.6 L/Ha), 36.96%; in assay [4] (450 g/L @ 2.8 L/Ha), 4.65%. The “Percentage Control at 63 DAA” value in assay [5] (450 g/L @ 1.6 L/Ha) and in assay [5] (450 g/L @ 2.8 L/Ha) was 75.00% each time. Besides, the “Mean Percentage Control” value in assay [3] (450 g/L @ 2.8 L/Ha) is on record as 20.00%. Also, in assay [3] (Cirsium arvense, dicot), the “Conclusion: control of the weed at equivalent dosage” value was “negligible control”. In addition, the “Percentage ground cover %, value in brackets (untreated 0.0%)” value in assay [6] is reported as “(52.8%)”. In assay [6] (oilseed rape), the “Percentage Control at 49 DAA” value is 61.25%. Further, the “Percentage ground cover %” value in [6] (untreated 4.50) came to 2.13%. The results for the “Percentage Control at 224 DAA” value in assay [7] (5 L/Ha of 450 g/L formulation), in [7] (7 L/Ha of 450 g/L formulation) and in assay [7] (14 L/Ha of 450 g/L formulation) were 33.3%, 66.7% and 83.3%, respectively. The “Percentage Control at 70 DAA” value in assay [8] (5 L/Ha of 450 g/L formulation) was 62.5%; in assay [8] (7 L/Ha of 450 g/L formulation), 81.7%; in assay [8] (14 L/Ha of 450 g/L formulation), 82.5%; in assay [9] (5 L/Ha of 450 g/L formulation) it was 37.5%; in assay [9] (7 L/Ha of 450 g/L formulation), 25.0%; in [9] (14 L/Ha of 450 g/L formulation), 12.5%. Further, the “% Control” value in assay [10] (16 DAA) is 12.50%; in assay [10] (33 DAA), 15.00%. Besides, the “EC50 based on the final fresh weights” value was 0.72 kg/Ha in assay [11] (Poa annua (monocot), 21 day assessment, probit) and 0.22 kg/Ha in assay [12]. In addition, the “Mean Final Foliar Fresh Weights Expressed as Percentage of Untreated Controls” value in assay [11] (rate 0.1575 kg/Ha) was 100%; in assay [11] (rate 1.26 kg/Ha), 23%; in [12] (rate 0.1575 kg/Ha), 70%; in assay [12] (rate 1.26 kg/Ha) it was 16%. Besides, the “Mean Final Foliar Fresh Weights” value in assay [11] (rate 0.315 kg/Ha pre-emergence) is reported as 0.57 g; in [11] (rate 0.63 kg/Ha pre-emergence), 0.98 g; in assay [12] (rate 0.315 kg/Ha pre-emergence) it was 0.3 g; in [12] (rate 0.63 kg/Ha pre-emergence), 0.328 g.

Take `CCN(CC)C(=O)[C@H](C)Oc1cccc2ccccc12` [L-Napropamide, reference compound]: the “EC50 based on the final fresh weights” value in assay [12] is given as 1.26 kg/Ha.

The values above are taken from US9307765B2, “Selective weed control using D-napropamide” (UPL Limited, priority 2013, dated 2016).
